Source: patent publication EP1081186A1, “Stabilized aqueous acrylamide polymer composition and photographic element containing the composition” (EASTMAN KODAK COMPANY (a New Jersey corporation), priority 1999, dated 2001)

Test: Inherent viscosity stability of aqueous acrylamide polymer solutions on keeping (capillary viscometer)
Assay type: physicochemical
Conditions: 0.33 % added to 15 % copolymer solution; at room temperature and at 50°C; compared with isopropanol
Protocol: In the following examples the inherent viscosities of the solutions were measured in a capillary viscometer at a polymer concentration of 0.25 g/dl using aqueous 0.1M sodium sulfate as the solvent. The measurements were carried out at a temperature of 25 degrees C. Inherent viscosity (I.V.) is calculated as: I.V. = ln( t / t0 )/c where t is the polymer solution flow time through the capillary, t0 is the solvent flow time, and c is the polymer concentration. [formula]
Initial Inherent Viscosities ranged from 2.00 to 2.12 dL/g. Percentage Change was defined with the following equation: %Change=(I.V.(t)-I.V.(0))/(I.V.(0))× 100 [formula] where I.V.(0) is the initial inherent viscosity and I.V.(t) is the inherent viscosity of the polymer at time t.
Initial Inherent Viscosities range from 1.90 to 2.00 dL/g. The I.V. change is determined as previously defined.

For `CC(C)(C)c1cccc(O)c1O` [t-butyl catechol], the inherent viscosity stability was “equal to or better than ten times the concentration of isopropanol”.
